Data on twelve compounds can be found in patent publication US10450288B2, “Hydroxy formamide derivatives and their use” (GLAXOSMITHKLINE INTELLECTUAL PROPERTY (NO.2) LIMITED, priority 2014, dated 2019).

The first assay has as its system human cardiac fibroblasts. The assay can be described thus: Cell-based inhibition assay of generation of procollagen I C-terminal propeptide (PICP), PICP ELISA. As to conditions: Cardiac fibroblast; human cardiac fibroblasts, crowding media, 24 to 48 hr, PICP ELISA of media; read-out: pIC50, PICP cellular inhibition assay (converted). The method, then:
Cell-Based Inhibition Assay of Generation of Procollagen I C-Terminal Propeptide (PICP) and Mature Collagen:
An adaptation of the collagen deposition assay described by Chen, C. Z. C., et al., British Journal of Pharmacology, 2009, 158, 1196-1209 was used to examine effect of compounds on procollagen I processing and collagen deposition. In the adapted assay, human cardiac fibroblasts were utilized. Processing of procollagen I was determined by a PICP ELISA assay and deposition of mature collagen was determined by immunostaining.
Human cardiac fibroblasts were cultured and maintained until passage 6 in FGM-3 media (Lonza, #CC-3132) in a 37° C. humidified incubator with 5% CO2. They were then seeded in 96-well black wall, clear bottom plates at 10,000 to 15,000 cells per well in eagle's minimum essential media (EMEM, ATCC #30-2003) containing 10% fetal bovine serum (FBS, Life Technologies #10082147), 1% Glutamax (Life Technologies #35050061) and 1% Penicillin and Streptomycin (Life Technologies #15070063). These cultures were placed in 37° C. incubator. The next day, media were removed by aspiration and cells were rinsed with phosphate buffered saline. Crowding media (also called ficoll media) was prepared by adding 112.5 mg/ml of ficoll70 and 75 mg/ml ficoll400 (GE healthcare #17-0310-10 and 17-0300-10, respectively), 100 μM ascorbic acid, 1% Glutamax and 1% Penicillin and Streptomycin to EMEM media. Test compounds (dissolved in DMSO) were diluted into crowding media and then added to the cells. Final concentration of DMSO in crowding media was less than 0.3%. Cells were treated for 24 to 48 hr in a 37° C. incubator. At the end of the treatment period, cell media were collected. The level of PICP in the media were determined by a PICP ELISA assay (Quidel #8003) following the manufacturer's protocol. Potencies of test compounds were calculated by fitting PICP levels, relative to untreated controls, to log (inhibitor) vs. response equation using Graphpad Prism software 5.0 and expressed as pIC50.
As to `CCCCC[C@H](CN(O)C=O)C(=O)NCNC(=O)c1ccc(-c2cccc(OC(F)(F)F)c2)o1` [Example 13, (R)-N-((2-((N-hydroxyformamido)methyl)heptanamido)methyl)-5-(3-(trifluoromethoxy)phenyl) furan-2-carboxamide carboxamide], the IC50 was less than 3.98 µM.

Take `CCCCC[C@@H](C(=O)NCNC(=O)c1ccc(-c2cc(OCC)cc(C(=O)N[C@H](CC(=O)O)C(=O)O)c2)o1)[C@@H](CC)N(O)C=O` [Example 84, (R)-2-(3-ethoxy-5-(5-((((R)-2-((R)-1-(N-hydroxy-formamido)propyl)heptanamido)methyl)carbamoyl)furan-2-yl)benzamido) succinic acid]: the IC50 is less than 3.98 µM.

As to `CCCCC[C@@H](C(=O)NCNC(=O)c1ccc(-c2ccc(C(C)(C)C(=O)O)cc2)o1)[C@@H](CC)N(O)C=O` [Example 43, 2-(4-(5-((((R)-2-((R)-1-(N-hydroxyformamido)propyl)heptanamido)methyl)carbamoyl)furan-2-yl)phenyl)-2-methylpropanoic acid], the IC50 was less than 3.98 µM.

On to `CCCCC[C@@H](C(=O)NCNC(=O)c1ccc(-c2cc(OCC)cc(C(F)(F)C(=O)O)c2)o1)[C@@H](CC)N(O)C=O` [Example 49, 2-(3-ethoxy-5-(5-((((R)-2-((R)-1-(N-hydroxyformamido)propyl)heptanamido)methyl)carbamoyl)furan-2-yl)phenyl)-2,2-difluoroacetic acid], for which the IC50 was less than 3.98 µM.

With `CCCCC[C@@H](C(=O)NCNC(=O)c1ccc(-c2cc(O)cc(OCC)c2)o1)[C@@H](CC)N(O)C=O` [Example 73, 5-(3-ethoxy-5-hydroxyphenyl)-N-(((R)-2-((R)-1-(N-hydroxyformamido)propyl)heptanamido)methyl)furan-2-carboxamide], the IC50 is less than 3.98 µM.

For `CCCCC[C@H](CN(O)C=O)C(=O)NCNC(=O)c1ccc(-c2cccc(OCC(F)(F)F)c2)o1` [Example 23, (R)-N-((2-((N-hydroxyformamido)methyl)heptanamido)methyl)-5-(3-(2,2,2-trifluoroethoxy)phenyl) furan-2-carboxamide], the IC50 is less than 3.98 µM.

Consider `CCOc1cc(-c2ccc(C(=O)NCNC(=O)[C@H](CCc3ccccc3)[C@@H](CC)N(O)C=O)o2)cc(P(=O)(O)O)c1` [Example 140], for which the IC50 is less than 3.98 µM.

With `CCCCC[C@H](CN(O)C=O)C(=O)NCNC(=O)c1ccc(-c2ccc(F)c(C(=O)OC)c2)o1` [Example 51, (R)-methyl 2-fluoro-5-(5-(((2-((N-hydroxyformamido)methyl)heptanamido)methyl)carbamoyl)furan-2-yl)benzoate], the IC50 is less than 3.98 µM.

With `CCCCC[C@H](CN(O)C=O)C(=O)NCNC(=O)c1ccc(-c2cccc(OC(F)F)c2)o1` [Example 35, (R)-5-(3-(difluoromethoxy)phenyl)-N-((2-((N hydroxyformamido)methyl)heptanamido)methyl) furan-2-carboxamide], the IC50 is less than 3.98 µM.

Take `CCCCC[C@H](CN(O)C=O)C(=O)NCNC(=O)c1ccc(-c2cc(OC)cc(C(=O)NCCN)c2)o1` [Example 33, (R)-5-(3-((2-aminoethyl)carbamoyl)-5-methoxyphenyl)-N-((2-((N-hydroxyformamido)methyl)heptanamido)methyl) furan-2-carboxamide]: the IC50 is less than 3.98 µM.

Staying with this assay, now noted: Homo sapiens, Cardiac fibroblast, read-out: pIC50, PICP cellular inhibition assay (converted).
Consider `CCCCC[C@H](CN(O)C=O)C(=O)NCNC(=O)c1ccc(-c2cc(OC)cc(C(=O)O)c2)o1` [Example 29, (R)-3-(5-(((2-((N-hydroxyformamido)methyl)heptanamido)methyl)carbamoyl)furan-2-yl)-5-methoxybenzoic acid], for which the IC50 was less than 3.98 µM.

`CCCCC[C@H](CN(O)C=O)C(=O)NCNC(=O)c1ccc(-c2cccc(P(=O)(O)OC)c2)o1` [Example 95, methyl hydrogen (3-(5-((((R)-2-((N-hydroxyformamido)methyl)heptanamido)methyl)carbamoyl)furan-2-yl)phenyl)phosphonate]: the IC50 was less than 3.98 µM.
